pEC50: −log10 of the molar value. In brackets after ≈: the same amount, converted by molar mass. Entries after “also recorded” stand apart in the source; their conditions may differ. Like-named read-outs stand apart in the source and are kept apart here.
Experiments:
human NaV1.6 = molecular target: T1, human NaV1.6 (Homo sapiens, UniProt Q9UQD0); experiment: Peak INa use dependent block (UDB-10 Hz), PatchXpress patch clamp; format: cell-based; settings: hNaV1.6
T1 construct: HEK-293 cell lines stably expressing either human NaV1.6 (NP_055006); expressed in transfected cells

[1] = test system: MES-induced seizures in male CD-1 mice; experiment: Maximal electroshock seizure (MES) test; format: in vivo, mouse
Experimental: Food and water were available ad libitum.
VPA was prepared in saline (Vehicle 1). All solutions were protected from light. All compounds and vehicles were dosed at 10 ml/kg.
The MES test was carried out over two days with 6 of 12 mice from each treatment group being tested on each day. Mice were brought to the test room at least one hour before the start of the experiment.
A Grass S88x (Grass Technologies of Astro-Med, Inc., West Warwick, RI) Stimulus Isolation Unit (A385, WPI Inc., USA) was set to deliver a 50 mA square-wave stimulus, with a 0.8 second duration, a pulse width of 10 msec, and a frequency of 50 Hz. A pair of custom stainless steel electrodes were soaked in 0.2% Agar, and then the subject received bilateral transauricular stimulation through ear-clip electrodes. During the stimulation, mice were manually restrained. They were then released into the observation cage for convulsion observation for 60 seconds immediately after stimulation. Each mouse was observed continuously by individuals blinded to treatment conditions and results were recorded.
Anti-seizure assessment endpoints were: (1) latency of hindlimb tonic flexion; (2) latency of hindlimb tonic extension; (3) total #hindlimb tonic flexions; (4) total #hindlimb tonic extensions; (5) latency to death; and (6) mortality rate
From these fitted curves, ED50 and EC50 values were calculated.

in vivo = settings: male, CD-1, mouse
Experimental: (§2) Male CD-1 mice, 6-weeks old, were obtained from Vital River (Beijing, China). The average body weight was 25-35 g at the time the experiments were carried out. The mice were housed in groups of 3-5 under controlled conditions (temperature: 20-26° C.; humidity: 40-70%; air exchange rate: 10-15 cycles/hour; 12:12 light-dark cycle with lights on at 5:00 a.m.). Food and water were available ad libitum. The mice were acclimated to these conditions for 6 days before the start of the studies.
(§3) Dosing solutions were prepared on each experiment day. […] All solutions were protected from light. Samples from dosing solutions were stored at 4° C. Both compound and vehicle were dosed at 10 ml/kg.
(§4) The sLMA test was carried out over two days. 5 of 10 mice from each treatment group were tested on each day. All animals were marked on the tail with a permanent marker and weighed. Mice were randomly assigned into one of the four treatment groups. Animals were acclimated to the test room at least 30 minutes before the start of the experiment.
(§5) Possible side effects, such as overt sedation, were recorded just before the start of the sLMA test.
(§6) Each mouse was automatically tracked with overhead cameras using a 1-minute sampling window in an isolated chamber. Spontaneous locomotor activity was then analyzed offline using the Animal Behavior Video Tracking Analysis System (Ji Liang Software Technology Co., Ltd., Shanghai, China).
(§7) Locomotor status was defined as >2 mm of movement in every 200 ms (Frame-rate recorded was 20 frames/second. Locomotor status was identified in every 4 frame-to-frame interval. The accumulated shift of tracking spots that exceeded 2 mm in every 4 frame intervals was identified as a locomotor epoch). Traveling distance was calculated automatically from all the locomotion epochs and analyzed.
(§8) All mice were anesthetized with CO2. Then, terminal plasma and brain tissue samples were collected from animals in the drug treatment groups. 500 μL whole blood was collected via cardiac puncture and placed in tubes with 10 μL EDTAK2. The tubes were then placed in wet ice until centrifuged at 2000 g for 5 minutes at 4° C. The supernatant plasma was pipetted into Eppendorf tubes.
(§9) Data are presented as mean±s.e.m., and p<0.05 was regarded as statistically significant.
(§10) Calculating TD50 and TC50 values Dose-response and concentration-response curves for plasma and brain were fitted for each end-point using GraphPad Prism. From these fitted curves, TD50 and TC50 values were calculated.
(§11) Compound 1 and CBZ were prepared individually in 35% HPBCD. […] All solutions were dosed at 10 mL/kg. Just before the start of the sLMA test, possible side effects such as overt sedation were recorde.

male CD-1 mice = experiment: Spontaneous locomotor activity (sLMA) test
Experimental: as §2, §3, §4, §5, §6, §7, §8, §9, §10, §11

[2] = in vivo
Description: (§12) This was a 2-part randomized, placebo-controlled Phase 1 trial in healthy participants aged 18-55 years. […] PD effects were examined on quantitative EEG (qEEG; resting and vigilant conditions) and stimulated EEG using auditory steady state response (ASSR). A total of 48 participants were enrolled; Part A, n=30; Part B, n=18.

[3] = Open-label study in DEE patients, pharmacokinetics (preliminary data); format: in vivo, human
Description: The purpose of this study is to evaluate the safety and tolerability of Compound 1, to assess the effect of Compound 1 on the frequency of motor seizures, and to characterize the pharmacokinetics (PK) of oral suspension Compound 1 in patients with developmental and epileptic encephalopathies (DEE).
This is an open-label proof of concept study with 3 cohorts of DEE patients (SCN2A, SCN8A, and Tuberous Sclerosis Complex (TSC)) between 2 years old and 17 years old. There will be an 8-week screening period followed by a 16-week treatment period comprised of 8-week dose optimization period and 8-week maintenance period, and a 4-week safety follow-up period or roll-over into LTE. The rationale for 16-week treatment period is based on the current knowledge of Compound 1 pharmacokinetics, which is predicted to potentially take about 6 weeks to achieve 90% steady state. The 8-week dose optimization period allows for adjusting concomitant SCBs and the additional 8 weeks will allow for evaluation of tolerability and efficacy signal during the maintenance period.
Dosing will be guided by preclinical data (targeting concentration between EC50 and EC90 from MES model) and modeling from adult PK data, and duration of dose optimization phase will be predicated on adult PK data. During the dose optimization period, the dose adjustment will be as follows. […]

[4] = Phase 1 single/multiple ascending dose and food effect trial, pharmacokinetics; format: in vivo, human; settings: for Tmax: human, plasma
Experimental: (§1) This was a 3-part Phase 1 clinical trial in healthy participants aged 18-55 years. Parts A and B were randomized, placebo-controlled and evaluated the effects of single (2.5-150 mg) and multiple (30-120 mg, 14 days QD (every day)) ascending oral doses of Compound 1, respectively. Part C was an open-label, randomized, crossover design evaluating the PK of a single oral dose (90 mg) in fasted and fed states. In Parts A (n=64) and B (n=32), participants were randomized 3:1 to Compound 1 or placebo (n=8/cohort). In Part C (n=16), participants were randomized 1:1 to one of two treatment sequences receiving a single dose of 90 mg Compound 1 in the fed (following a high-fat/high calorie meal) or fasted (>10 hours after the last, and 4 hours before the next, meal) state.

healthy participants [5] = experiment: Phase 1 single/multiple ascending dose and food effect trial, safety and tolerability; format: in vivo, human; settings: whole trial
Experimental: as §1

healthy participants [6] = experiment: Phase 1 28-day trial (Part A 90 mg; Part B OXC + 120 mg), safety and tolerability; format: in vivo, human
Description: as §12

[7] = Half-life of Compound 1 as stated in dosing guidance of Example 13; settings: human, in vivo
[8] = Phase 1 28-day trial (Part A 90 mg; Part B OXC + 120 mg), pharmacokinetics
Description: as §12

T1 sequence (Q9UQD0 whole entry): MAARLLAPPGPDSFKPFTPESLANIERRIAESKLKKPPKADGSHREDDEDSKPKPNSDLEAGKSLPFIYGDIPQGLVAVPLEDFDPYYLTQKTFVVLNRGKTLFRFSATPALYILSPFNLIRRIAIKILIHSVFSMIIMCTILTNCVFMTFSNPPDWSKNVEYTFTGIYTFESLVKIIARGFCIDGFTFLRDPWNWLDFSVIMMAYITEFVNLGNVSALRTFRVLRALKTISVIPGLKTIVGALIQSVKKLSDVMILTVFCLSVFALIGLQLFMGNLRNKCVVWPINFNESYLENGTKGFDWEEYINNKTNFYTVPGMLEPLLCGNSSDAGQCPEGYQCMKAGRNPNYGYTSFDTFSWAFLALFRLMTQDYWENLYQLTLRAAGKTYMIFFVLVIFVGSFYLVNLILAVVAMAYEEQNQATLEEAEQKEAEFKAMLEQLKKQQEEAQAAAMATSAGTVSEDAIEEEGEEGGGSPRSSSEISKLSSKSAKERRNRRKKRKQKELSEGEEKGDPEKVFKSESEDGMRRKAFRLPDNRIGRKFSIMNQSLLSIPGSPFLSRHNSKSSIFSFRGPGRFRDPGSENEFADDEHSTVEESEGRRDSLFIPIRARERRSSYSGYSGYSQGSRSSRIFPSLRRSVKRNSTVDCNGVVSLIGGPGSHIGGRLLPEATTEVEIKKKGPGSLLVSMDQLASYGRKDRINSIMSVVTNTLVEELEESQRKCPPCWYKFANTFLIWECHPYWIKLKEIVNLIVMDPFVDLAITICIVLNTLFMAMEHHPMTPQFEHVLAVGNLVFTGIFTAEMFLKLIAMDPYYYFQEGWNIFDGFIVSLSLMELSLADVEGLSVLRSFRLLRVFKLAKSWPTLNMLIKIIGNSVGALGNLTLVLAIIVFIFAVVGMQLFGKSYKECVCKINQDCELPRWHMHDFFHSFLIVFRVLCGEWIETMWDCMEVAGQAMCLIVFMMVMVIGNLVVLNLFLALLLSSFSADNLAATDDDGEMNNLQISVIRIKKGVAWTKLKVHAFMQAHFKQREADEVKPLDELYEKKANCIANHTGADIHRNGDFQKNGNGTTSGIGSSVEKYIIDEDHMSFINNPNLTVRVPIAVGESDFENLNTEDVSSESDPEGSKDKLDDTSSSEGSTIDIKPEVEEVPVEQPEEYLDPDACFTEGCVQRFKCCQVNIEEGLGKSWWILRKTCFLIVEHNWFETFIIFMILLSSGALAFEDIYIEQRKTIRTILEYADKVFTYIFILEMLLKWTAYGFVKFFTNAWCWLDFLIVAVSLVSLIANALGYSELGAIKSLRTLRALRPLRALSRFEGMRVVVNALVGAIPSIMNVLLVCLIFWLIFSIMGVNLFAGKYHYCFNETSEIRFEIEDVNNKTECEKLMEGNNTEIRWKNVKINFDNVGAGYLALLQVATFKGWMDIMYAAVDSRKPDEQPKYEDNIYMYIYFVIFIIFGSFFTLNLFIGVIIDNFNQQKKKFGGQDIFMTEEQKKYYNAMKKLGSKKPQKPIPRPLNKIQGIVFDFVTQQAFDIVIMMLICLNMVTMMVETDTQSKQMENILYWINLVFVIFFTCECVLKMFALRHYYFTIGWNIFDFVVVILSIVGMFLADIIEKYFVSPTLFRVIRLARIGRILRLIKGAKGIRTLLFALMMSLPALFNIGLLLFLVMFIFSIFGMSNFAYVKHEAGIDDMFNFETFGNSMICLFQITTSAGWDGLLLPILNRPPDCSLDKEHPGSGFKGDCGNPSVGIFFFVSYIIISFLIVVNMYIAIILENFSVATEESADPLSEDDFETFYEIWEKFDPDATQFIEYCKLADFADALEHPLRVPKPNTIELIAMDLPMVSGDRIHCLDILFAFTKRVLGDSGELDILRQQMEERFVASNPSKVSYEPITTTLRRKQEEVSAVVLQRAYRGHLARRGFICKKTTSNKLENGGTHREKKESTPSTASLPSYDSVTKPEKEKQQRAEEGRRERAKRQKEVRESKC

NC(=O)N1c2ccccc2C=Cc2ccccc21 [Carbamazepine]
use-dependent block of peak INa (in words) (human NaV1.6; frequency increased to 30 Hz or 50 Hz): could be observed
use-dependent block of peak INa (in words) (human NaV1.6; stimulation frequency 10 Hz): not observed
mice protected from MES-induced tonic hindlimb seizures ([1]; 30 mg/kg): all mice
pEC50 (in vivo; in vivo): 4.72
sLMA at the dose required for complete seizure prevention (male CD-1 mice; mouse, in vivo): significant reduction

NC(=O)N1c2ccccc2CC(O)c2ccccc21 (stereo not shown) [10-Hydroxycarbamezapine]
exposure when administered concomitantly with Compound 1 vs alone [2]: similar

CCOC(F)(F)c1nnc2cnc(-c3cnc(OCC(F)(F)F)c(F)c3)cn12 [Compound 1]
approach to steady state ([3]; after 28 days of once daily dosing and auto-titration): approaches steady state
Compound 1 exposures on Day 1 (after single dose) ([3]; first 12 DEE participants, preliminary): above therapeutic range; also recorded: above predicted therapeutic levels
increase in AUC, fed vs fasted ([4]; 90 mg single dose): 14%
increase in Cmax, fed vs fasted ([4]; 90 mg single dose): 9%
Tmax ([4]; oral, 90 mg, 90 mg single dose, fasted, read-out: tmax, fasted state): 2.5 h
Tmax ([4]; oral, 90 mg, 90 mg single dose, fed, read-out: tmax, fed state): 4 h
Tmax ([4]; po, healthy adults, read-out: time to observed maximum concentration (tmax)): 2 to 3 h
exposure vs dose ([4]; over the evaluated dose range): increased dose proportionally
TEAEs that were mild (healthy participants [5]): > 92%
TEAEs mild or moderate (healthy participants [6]; Part A): 100%
TEAEs moderate in severity (healthy participants [6]; Part A): 29%
tolerability in healthy adults (healthy participants [6]; Part A, 90 mg): well tolerated
TEAEs mild in severity (healthy participants [6]; Part A, 90 mg QD 28 days vs placebo, 35 TEAEs across 13 participants): 71%
review of ALT/AST increases and rhabdomyolysis (healthy participants [6]; Part B): did not identify a causal association
half-life [7]: ~96 h
pEC50 (in vivo; plasma (free concentration), oral): 6.51
effect on locomotor function (male CD-1 mice; 10 mg/kg): no effect
total traveling distance in the 30-minute sLMA test (male CD-1 mice; 20 and 40 mg/kg p.o.): significantly reduced; also recorded: reductions
TC50 (free brain) Tolerability (sLMA) (male CD-1 mice; free brain concentration): 0.0697 µM
TC50 in brain, free (sLMA) (male CD-1 mice; free brain concentration): 0.0697 µM
TC50 in plasma, free (sLMA) (male CD-1 mice; free plasma concentration): 0.3089 µM
TC50 in brain (sLMA) (male CD-1 mice; total brain concentration): 1899 ng/g
TC50 in plasma (sLMA) (male CD-1 mice; total plasma concentration): 1.553 µg/mL (≈ 3.81 µM)
increase in Compound 1 concentrations over the human-equivalent dose required for efficacy in preclinical MES models [8]: 13 fold
approach to steady state ([8]; 90 mg for 28 days): approached steady state

NC(=O)N1c2ccccc2CC(=O)c2ccccc21 [Oxcarbazepine, reference compound]
patients in whom TEAEs were observed (healthy participants [6]; Part B, per arm): 75%
exposure when administered concomitantly with Compound 1 vs alone [2]: similar

NC(=O)O[C@@H](Cn1ncnn1)c1ccccc1Cl [Cenobamate]
Ratio to Peak INa (TB) (TB / UDB-10 Hz) (human NaV1.6): 2.3

Nc1nnc(-c2cccc(Cl)c2Cl)c(N)n1 [Lamotrigine]
use-dependent block of peak INa (in words) (human NaV1.6; stimulation frequency 10 Hz): not observed
mice protected from MES-induced tonic hindlimb seizures ([1]; 10 mg/kg): eight of 12
pEC50 (in vivo; in vivo): 4.69

From US20250312338A1, “TREATMENT OF NEUROLOGICAL DISORDERS” (Praxis Precision Medicines, Inc., priority 2022, published 2025)
